Data: ChEMBL document CHEMBL1629610, “A 6-aminoquinolone compound, WC5, with potent and selective anti-human cytomegalovirus activity” (Antimicrob Agents Chemother, 2009)
Activity calls are given as the source filed them. The rule behind the calls is not given here.

Experiments:
[1] = Cytotoxicity against human foreskin fibroblast after 5 days by MTT assay; assay type: cell-based; details: human foreskin fibroblasts (HFF)
[2] = Selectivity index, ratio of CC50 for Human foreskin fibroblast to EC50 for Human cytomegalovirus AD169
[3] = test system: Human betaherpesvirus 5; test: Antiviral activity against Human cytomegalovirus infected in human […] cells transfected with pcDNA3.1-human EF1alpha-GFP assessed as induction of GFP-tagged viral immediate early gene expression at 0.5 uM after 48 hrs by transactivation assay; assay type: functional, organism-based; details: AD169
[4] = test system: Human betaherpesvirus 5; test: Antiviral activity against Human cytomegalovirus infected in human […] cells transfected with pcDNA3.1-HIV1 LTR-GFP assessed as induction of GFP-tagged viral immediate early gene expression at 0.5 uM after 48 hrs by transactivation assay; assay type: functional, organism-based; details: AD169
[5] = test system: Human betaherpesvirus 5; test: Antiviral activity against Human cytomegalovirus AD169 infected in human […] cells assessed as induction of GFP-tagged viral immediate early gene expression at 0.5 uM after 48 hrs by flow cytometry; assay type: functional, organism-based
[6] = test system: Human betaherpesvirus 5; test: Antiviral activity against Human cytomegalovirus infected in human […] cells transfected with pcDNA3.1-human GADPH-GFP assessed as induction of GFP-tagged viral immediate early gene expression at 0.5 uM after 48 hrs by transactivation assay; assay type: functional, organism-based; details: AD169
[7] = Ratio of EC50 for Human cytomegalovirus AD169 to EC50 for Murine cytomegalovirus; assay type: functional
[8] = Selectivity index, ratio of CC50 for human MOLT4 cells to EC50 for Human herpesvirus 6B Z29; assay type: toxicity, cell-based, MOLT-4; details: read-out: Ratio CC50/EC50
[9] = test system: MOLT-4; test: Antiviral activity against Human herpesvirus 6B Z29 infected in human MOLT4 cells assessed as inhibition of virus-induced cytopathic effect by microscopic estimation; assay type: functional, cell-based; details: Human herpesvirus 6 strain Z29
[10] = Selectivity index, ratio of CC50 for mouse NIH 3T3 cells to EC50 for Murine cytomegalovirus; assay type: toxicity, cell-based, NIH3T3; details: read-out: Ratio CC50/EC50
[11] = test system: Human betaherpesvirus 5; test: Antiviral activity against GDG-, GCV-,CDV-resistant Human cytomegalovirus P53 harboring DNA polymerase A987G mutant gene infected in human foreskin fibroblast by plaque reduction assay; assay type: functional, organism-based; details: Human betaherpesvirus 5, P53
[12] = Selectivity index, ratio of CC50 for human BC-3 cells to EC50 for Human herpesvirus 8; assay type: toxicity, cell-based; details: read-out: Ratio CC50/EC50
[13] = Cytotoxicity against mouse NIH/3T3 cells by MTT assay; assay type: cell-based, NIH3T3
[14] = Cytotoxicity against human HSB2 cells by MTT assay; assay type: cell-based, CCRF-HSB-2
[15] = test system: Human betaherpesvirus 5; test: Antiviral activity against GCV-resistant Human cytomegalovirus 759rD100 harboring 4-aa deletion (638-641) in UL97 kinase and DNA polymerase A987G mutant infected in human foreskin fibroblast by plaque reduction assay; assay type: functional, organism-based; details: Human betaherpesvirus 5, 759rD100
[16] = Cytotoxicity against human MOLT4 cells by MTT assay; assay type: cell-based, MOLT-4
[17] = test system: Human betaherpesvirus 5; test: Antiviral activity against Human cytomegalovirus AD169 infected in human […] cells assessed as induction of GFP-tagged viral immediate early gene expression at 50 uM after 48 hrs by flow cytometry; assay type: functional, organism-based
[18] = test system: Human betaherpesvirus 5; test: Antiviral activity against PFA-, acyclovir-resistant Human cytomegalovirus D100 harboring mutation in DNA polymerase infected in human foreskin fibroblast by plaque reduction assay; assay type: functional, organism-based; details: Human betaherpesvirus 5, D100
[19] = Antiviral activity against Human herpesvirus 6B Z29 infected in human MOLT4 cells assessed as inhibition of virus DNA replication after 12 days by quantitative real time PCR; assay type: functional, cell-based, Human herpesvirus 6 strain Z29; details: Human betaherpesvirus 6B, MOLT-4, 288 h
[20] = test system: Human betaherpesvirus 5; test: Antiviral activity against GDG-, GCV-resistant Human cytomegalovirus K17 harboring 4-aa deletion (638-641) in UL97 kinase infected in human foreskin fibroblast by plaque reduction assay; assay type: functional, organism-based; details: Human betaherpesvirus 5, K17
[21] = test system: Human gammaherpesvirus 8; test: Antiviral activity against Human herpesvirus 8 infected in human BC-3 cells assessed as inhibition of virus-induced cytopathic effect by microscopic estimation; assay type: functional, organism-based
[22] = test system: Human betaherpesvirus 5; test: Antiviral activity against Human cytomegalovirus infected in human […] cells transfected with pcDNA3.1-human EF1alpha-GFP assessed as induction of GFP-tagged viral immediate early gene expression at 50 uM after 48 hrs by transactivation assay; assay type: functional, organism-based; details: AD169
[23] = test system: Human betaherpesvirus 5; test: Antiviral activity against Human cytomegalovirus infected in human […] cells transfected with pcDNA3.1-HIV1 LTR-GFP assessed as induction of GFP-tagged viral immediate early gene expression at 50 uM after 48 hrs by transactivation assay; assay type: functional, organism-based; details: AD169
[24] = Antiviral activity against Murine cytomegalovirus Smith infected in mouse NIH-3T3 cells assessed as inhibition of virus DNA replication after 12 days by plaque reduction assay; assay type: functional, cell-based, Murine cytomegalovirus (strain Smith); details: Murid betaherpesvirus 1, NIH3T3, 288 h
[25] = test system: Human betaherpesvirus 5; test: Antiviral activity against Human cytomegalovirus AD169 infected in human foreskin fibroblast by plaque reduction assay; assay type: functional, organism-based; details: Human betaherpesvirus 5, AD169
[26] = test system: HSB-2; test: Antiviral activity against Human herpesvirus 6A GS infected in human HSB-2 cells assessed as inhibition of virus-induced cytopathic effect by microscopic estimation; assay type: functional, cell-based; details: Human herpesvirus 6 (strain GS)
[27] = Antiviral activity against Human herpesvirus 6A GS infected in human HSB-2 cells assessed as inhibition of virus DNA replication after 12 days by quantitative real time PCR; assay type: functional, cell-based, Human herpesvirus 6 (strain GS); details: Human betaherpesvirus 6A, HSB2, 288 h
[28] = Selectivity index, ratio of CC50 for human HSB-2 cells to EC50 for Human herpesvirus 6A GS; assay type: toxicity, cell-based; details: read-out: Ratio CC50/EC50
[29] = test system: Human gammaherpesvirus 8; test: Antiviral activity against Human herpesvirus 8 infected in human BC-3 cells assessed as inhibition of virus DNA replication after 12 days by quantitative real time PCR; assay type: functional, organism-based; details: Human gammaherpesvirus 8, BC-3, 288 h
[30] = Cytotoxicity against human BC-3 cells by MTT assay; assay type: cell-based
[31] = test system: Human betaherpesvirus 5; test: Antiviral activity against Human cytomegalovirus infected in human […] cells transfected with pcDNA3.1-human GADPH-GFP assessed as induction of GFP-tagged viral immediate early gene expression at 50 uM after 48 hrs by transactivation assay; assay type: functional, organism-based; details: AD169
[32] = test system: Human betaherpesvirus 5; test: Antiviral activity against Human cytomegalovirus AD169 infected in human foreskin fibroblast assessed as inhibition of viral replication after 10 days by plaque reduction assay; assay type: functional, organism-based; details: Human betaherpesvirus 5, AD169, 240 h

For CC(C)(C)n1cc(C(=O)O)c(=O)c2cc(N)c(N3CCN(c4ccccn4)CC3)cc21, the CC50 at 120 h [1] was ≥ 475 µM and the “Ratio CC50/EC50” value [2] was “>=13”.

With Nc1cc2c(=O)c(C(=O)O)cn(C3CC3)c2cc1N1CCN(c2nc3ccccc3s2)CC1 the CC50 at 120 h [1] was 4.5 µM, the Activity [3] was “Active” and the Activity [4] was “Active”. The Activity [5] was “Active” and the Activity [6] was “Active”.

For Nc1cc2c(=O)c(C(=O)O)cn(C3CC3)c2cc1N1CCN(c2ccccn2)CC1, the “fold change (FC)” value [7] was 10, the selectivity ratio [8] was 7 and the CC50 at 120 h [1] was 431 µM. For the same molecule, the Activity [9] was “Active”, the selectivity ratio [10] was 25 and the EC50 [11] was 1 µM. The selectivity ratio [12] was 3, the CC50 [13] was 275 µM and the CC50 [14] was 32 µM. The EC50 [15] was 0.9 µM, the CC50 [16] was 24 µM and the Activity [17] was “inactive”. For the same molecule, the EC50 [18] was 1.1 µM, the EC50 [19] was 3.3 µM and the EC50 [20] was 1.5 µM. For the same molecule, the Activity [21] was “Active”, the Activity [22] was “inactive” and the Activity [23] was “inactive”. For the same molecule, the EC50 [24] was 10.8 µM, the EC50 [25] was 0.9 µM and the Activity [26] was “Active”. It also gave an EC50 [27] of 5.1 µM, a selectivity ratio [28] of 6 and an EC50 [29] of 14.2 µM. The CC50 [30] was 47 µM and the Activity [31] was “inactive”.

With Cn1cc(C(=O)O)c(=O)c2cc(N)c(N3CCN(c4ccccn4)CC3)cc21 the CC50 at 120 h [1] was 54 µM and the “Ratio CC50/EC50” value [2] was 77.

Nc1nc2c(ncn2COC(CO)CO)c(=O)[nH]1 [GANCICLOVIR] gave a CC50 at 120 h [1] of 550 µM and an EC50 [32] of 1.9 µM.
